Test [1] concerns the target Sodium-dependent serotonin transporter (Homo sapiens) (UniProt P31645). The test can be described thus: Displacement of [3H]paroxetine from full-length recombinant human SET receptor expressed in HEK293 cells at 10 uM measured after 60 mins by scintillation counting method relative to control. In kind it is cell-based.
Test [2] has as its target Cholecystokinin receptor type A (Homo sapiens) (UniProt P32238). Kind of test: Displacement of [125I]CCK8 from full-length recombinant human CCK1 receptor expressed in human 1321N1 cells at 10 uM measured after 3 hrs by scintillation counting method relative to control. The class given is cell-based.
Test [3] concerns the target 5-hydroxytryptamine receptor 2B (Homo sapiens) (UniProt P41595). Kind of test: Displacement of [3H]LSD from full-length recombinant human 5HT2B receptor expressed in CHOK1 cells at 10 uM measured after 60 mins by scintillation counting method relative to control. In kind it is cell-based.
Test [4] addresses 5-hydroxytryptamine receptor 2A (Homo sapiens) (UniProt P28223). The test can be described thus: Displacement of [3H]ketanserin from full-length recombinant human 5HT2A receptor expressed in CHOK1 cells at 10 uM measured after 60 mins by scintillation counting method relative to control. In kind it is cell-based.
Test [5] addresses Beta-2 adrenergic receptor (Homo sapiens) (UniProt P07550). The test can be described thus: Displacement of [3H]CGP-12177 from full-length recombinant human beta2 receptor expressed in CHO cells co-expressing NBR1 at 10 uM measured after 120 mins by scintillation counting method relative to control. The class given is cell-based.
In test [6] the target is T1, Poly [ADP-ribose] polymerase tankyrase-2 (Homo sapiens, UniProt Q9H2K2).
T1 sequence (Q9H2K2 whole entry): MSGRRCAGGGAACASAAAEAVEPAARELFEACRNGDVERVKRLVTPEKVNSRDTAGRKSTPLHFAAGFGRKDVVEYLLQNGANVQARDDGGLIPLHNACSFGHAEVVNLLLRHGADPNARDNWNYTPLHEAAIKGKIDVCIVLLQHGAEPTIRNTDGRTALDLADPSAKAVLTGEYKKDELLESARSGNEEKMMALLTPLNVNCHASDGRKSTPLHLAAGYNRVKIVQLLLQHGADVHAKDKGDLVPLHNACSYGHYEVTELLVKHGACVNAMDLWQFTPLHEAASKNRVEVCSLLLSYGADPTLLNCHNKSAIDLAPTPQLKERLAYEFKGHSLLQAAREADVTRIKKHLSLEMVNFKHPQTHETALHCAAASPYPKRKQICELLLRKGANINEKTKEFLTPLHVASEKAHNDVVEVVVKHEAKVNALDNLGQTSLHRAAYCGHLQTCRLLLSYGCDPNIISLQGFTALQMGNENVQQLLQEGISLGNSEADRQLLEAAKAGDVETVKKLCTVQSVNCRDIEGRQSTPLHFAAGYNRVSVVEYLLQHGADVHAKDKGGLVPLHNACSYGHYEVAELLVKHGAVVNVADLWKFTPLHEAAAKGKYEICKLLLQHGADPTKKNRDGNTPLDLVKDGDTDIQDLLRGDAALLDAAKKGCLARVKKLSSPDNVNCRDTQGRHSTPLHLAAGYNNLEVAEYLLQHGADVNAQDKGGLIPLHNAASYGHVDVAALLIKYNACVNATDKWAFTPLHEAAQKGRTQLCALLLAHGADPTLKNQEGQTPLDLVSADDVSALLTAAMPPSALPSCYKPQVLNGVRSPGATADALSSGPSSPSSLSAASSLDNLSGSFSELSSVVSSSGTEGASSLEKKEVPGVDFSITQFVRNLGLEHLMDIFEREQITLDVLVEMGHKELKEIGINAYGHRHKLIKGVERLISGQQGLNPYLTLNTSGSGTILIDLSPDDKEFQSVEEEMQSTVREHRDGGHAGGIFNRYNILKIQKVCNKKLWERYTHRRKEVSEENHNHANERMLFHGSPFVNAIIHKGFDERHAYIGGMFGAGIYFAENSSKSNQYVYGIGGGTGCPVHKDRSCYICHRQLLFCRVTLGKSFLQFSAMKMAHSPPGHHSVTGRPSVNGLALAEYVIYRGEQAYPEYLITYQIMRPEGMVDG
Description: Inhibition of recombinant human N-terminal TEV cleavage site-fused/FLAG-poly his-tagged TNKS2 SAM-PARP domain (613 to 1166 residues) expressed in Escherichia coli assessed as reduction in auto-PARylation preincubated for 10 mins followed by biotinylated-NAD+ addition and measured after 45 mins by ELISA

A further test concerns the target T2, Tankyrase 1/2 (Homo sapiens, UniProt Q9H2K2+O95271).
T2 sequence (Q9H2K2 whole entry): T1 sequence (Q9H2K2 whole entry)
T2 sequence (O95271 whole entry): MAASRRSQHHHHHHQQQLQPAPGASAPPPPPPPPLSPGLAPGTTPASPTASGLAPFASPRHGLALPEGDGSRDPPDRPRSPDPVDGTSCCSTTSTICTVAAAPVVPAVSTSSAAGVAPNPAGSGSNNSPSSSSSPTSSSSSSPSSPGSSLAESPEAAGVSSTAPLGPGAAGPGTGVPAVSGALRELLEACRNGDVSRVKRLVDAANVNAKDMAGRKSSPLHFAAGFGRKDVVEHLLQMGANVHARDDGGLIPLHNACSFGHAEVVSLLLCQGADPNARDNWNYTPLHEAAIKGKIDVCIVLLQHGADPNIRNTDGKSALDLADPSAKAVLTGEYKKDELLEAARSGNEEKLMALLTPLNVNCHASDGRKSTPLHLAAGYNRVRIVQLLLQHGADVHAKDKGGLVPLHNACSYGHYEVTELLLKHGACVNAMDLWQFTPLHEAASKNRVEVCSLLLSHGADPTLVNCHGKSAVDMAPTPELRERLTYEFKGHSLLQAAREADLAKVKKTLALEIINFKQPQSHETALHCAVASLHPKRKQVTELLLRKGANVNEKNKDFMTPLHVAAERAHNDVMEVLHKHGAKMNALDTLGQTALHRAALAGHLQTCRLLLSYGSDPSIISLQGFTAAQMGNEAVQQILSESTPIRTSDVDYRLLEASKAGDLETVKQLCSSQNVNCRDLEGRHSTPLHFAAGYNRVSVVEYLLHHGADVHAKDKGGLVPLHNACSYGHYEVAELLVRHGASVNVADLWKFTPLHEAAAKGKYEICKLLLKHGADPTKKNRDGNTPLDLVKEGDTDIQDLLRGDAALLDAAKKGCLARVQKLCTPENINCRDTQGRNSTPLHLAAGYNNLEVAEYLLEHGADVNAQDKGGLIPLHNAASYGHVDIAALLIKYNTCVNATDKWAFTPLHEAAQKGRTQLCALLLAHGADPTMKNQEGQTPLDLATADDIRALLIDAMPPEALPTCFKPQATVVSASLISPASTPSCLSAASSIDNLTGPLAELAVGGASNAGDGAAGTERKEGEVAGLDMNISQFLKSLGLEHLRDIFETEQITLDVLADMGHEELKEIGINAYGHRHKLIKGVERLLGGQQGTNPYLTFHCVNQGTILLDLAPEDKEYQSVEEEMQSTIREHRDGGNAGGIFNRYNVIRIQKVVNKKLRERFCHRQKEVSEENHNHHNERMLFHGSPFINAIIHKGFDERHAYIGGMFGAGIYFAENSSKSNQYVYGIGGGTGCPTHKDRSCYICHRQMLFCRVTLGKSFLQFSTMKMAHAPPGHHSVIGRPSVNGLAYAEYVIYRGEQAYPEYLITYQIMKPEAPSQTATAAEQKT

Some results are limits rather than exact numbers.

Beta-2 adrenergic receptor (Homo sapiens), sequence (P07550 whole entry, looked up): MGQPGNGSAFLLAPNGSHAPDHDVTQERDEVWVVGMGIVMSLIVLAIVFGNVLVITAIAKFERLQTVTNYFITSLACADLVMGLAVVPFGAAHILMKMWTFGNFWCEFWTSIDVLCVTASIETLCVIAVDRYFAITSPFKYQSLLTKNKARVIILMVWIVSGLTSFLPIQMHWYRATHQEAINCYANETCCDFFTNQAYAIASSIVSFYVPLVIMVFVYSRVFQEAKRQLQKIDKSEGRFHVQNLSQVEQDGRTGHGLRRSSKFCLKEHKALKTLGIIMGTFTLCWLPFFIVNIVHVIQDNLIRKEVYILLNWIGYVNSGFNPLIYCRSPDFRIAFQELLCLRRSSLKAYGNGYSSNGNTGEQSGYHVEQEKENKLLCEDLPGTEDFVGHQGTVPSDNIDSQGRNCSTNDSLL
Cholecystokinin receptor type A (Homo sapiens), sequence (P32238 whole entry): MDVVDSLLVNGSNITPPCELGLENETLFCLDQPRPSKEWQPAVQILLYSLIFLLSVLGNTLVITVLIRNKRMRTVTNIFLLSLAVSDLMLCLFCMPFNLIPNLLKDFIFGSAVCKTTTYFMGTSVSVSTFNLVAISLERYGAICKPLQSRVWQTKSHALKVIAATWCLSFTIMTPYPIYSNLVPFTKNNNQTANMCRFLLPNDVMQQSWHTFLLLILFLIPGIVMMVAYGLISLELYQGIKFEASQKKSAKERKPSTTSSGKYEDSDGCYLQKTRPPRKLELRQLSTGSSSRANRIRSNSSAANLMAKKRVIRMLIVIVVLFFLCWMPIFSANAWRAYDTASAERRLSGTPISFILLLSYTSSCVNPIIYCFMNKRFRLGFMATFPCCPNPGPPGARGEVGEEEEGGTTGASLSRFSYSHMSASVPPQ
Sodium-dependent serotonin transporter (Homo sapiens), sequence (P31645 whole entry, looked up): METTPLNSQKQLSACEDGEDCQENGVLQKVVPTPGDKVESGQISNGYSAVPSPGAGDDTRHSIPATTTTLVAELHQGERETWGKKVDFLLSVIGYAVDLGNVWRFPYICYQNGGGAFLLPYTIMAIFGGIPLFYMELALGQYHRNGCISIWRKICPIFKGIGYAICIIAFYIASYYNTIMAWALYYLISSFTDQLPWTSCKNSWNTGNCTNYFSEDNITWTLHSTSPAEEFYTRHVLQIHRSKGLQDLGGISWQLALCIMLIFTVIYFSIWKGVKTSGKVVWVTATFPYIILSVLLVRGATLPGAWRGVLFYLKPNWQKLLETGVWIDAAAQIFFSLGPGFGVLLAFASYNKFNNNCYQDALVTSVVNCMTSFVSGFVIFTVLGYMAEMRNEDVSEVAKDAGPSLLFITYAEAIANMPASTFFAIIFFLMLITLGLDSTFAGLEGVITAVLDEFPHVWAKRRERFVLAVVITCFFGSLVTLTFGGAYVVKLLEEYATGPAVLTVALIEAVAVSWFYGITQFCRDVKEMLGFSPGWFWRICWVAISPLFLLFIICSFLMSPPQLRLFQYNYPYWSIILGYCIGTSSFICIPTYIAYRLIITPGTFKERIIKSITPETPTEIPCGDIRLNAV
5-hydroxytryptamine receptor 2A (Homo sapiens), sequence (P28223 whole entry): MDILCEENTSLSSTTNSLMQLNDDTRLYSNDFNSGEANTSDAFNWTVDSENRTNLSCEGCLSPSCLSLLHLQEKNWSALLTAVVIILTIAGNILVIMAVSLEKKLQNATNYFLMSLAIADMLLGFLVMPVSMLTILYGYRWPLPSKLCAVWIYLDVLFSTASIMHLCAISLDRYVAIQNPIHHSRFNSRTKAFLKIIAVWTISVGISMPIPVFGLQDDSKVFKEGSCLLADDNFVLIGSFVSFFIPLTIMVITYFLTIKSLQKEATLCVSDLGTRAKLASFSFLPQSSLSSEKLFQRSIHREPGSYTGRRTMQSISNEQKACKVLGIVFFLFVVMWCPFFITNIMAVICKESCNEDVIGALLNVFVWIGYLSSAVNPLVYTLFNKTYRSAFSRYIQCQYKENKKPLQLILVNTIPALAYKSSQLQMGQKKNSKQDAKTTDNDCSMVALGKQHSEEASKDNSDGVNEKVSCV
5-hydroxytryptamine receptor 2B (Homo sapiens), sequence (P41595 whole entry): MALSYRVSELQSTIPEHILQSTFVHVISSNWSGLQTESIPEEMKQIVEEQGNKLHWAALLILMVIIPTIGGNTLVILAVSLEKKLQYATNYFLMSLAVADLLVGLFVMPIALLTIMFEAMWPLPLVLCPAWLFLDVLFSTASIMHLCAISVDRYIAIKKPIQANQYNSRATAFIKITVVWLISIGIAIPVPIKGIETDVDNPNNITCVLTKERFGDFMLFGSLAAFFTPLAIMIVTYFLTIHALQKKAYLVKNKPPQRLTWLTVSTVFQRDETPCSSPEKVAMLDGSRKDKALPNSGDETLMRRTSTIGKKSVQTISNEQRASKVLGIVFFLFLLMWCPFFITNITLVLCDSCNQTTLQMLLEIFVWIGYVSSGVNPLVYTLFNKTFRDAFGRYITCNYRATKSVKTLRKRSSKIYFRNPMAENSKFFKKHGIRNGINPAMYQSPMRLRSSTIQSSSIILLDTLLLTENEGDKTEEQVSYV
Description for Tankyrase 1/2: Inhibition of TNKS/TNKS2 (unknown origin) expressed in human DLD1 cells assessed as reduction in Wnt-signaling measured after 24 hrs by TCF-luciferase reporter gene assay

In the case of `O=c1[nH]c(N2CCC3(CC2)CN(CCO)c2cc(F)cc(F)c23)nc2c1CCCC2`, the inhibition in test [1], in test [2], in test [3], in test [4] and in test [5] was more than 20% each time.

As to `COc1ccccc1N1CCN(c2nc3c(c(=O)[nH]2)CCCC3)CC1`, the IC50 in test [6] was 19.4 nM; on Tankyrase 1/2, 233 nM.

Values taken from ChEMBL document CHEMBL4387706, “Discovery of Novel Spiroindoline Derivatives as Selective Tankyrase Inhibitors” (J Med Chem, 2019).
